From patent US20160220567A1, “COMPOSITION FOR TREATING OR PREVENTING BONE DISEASES, COMPRISING HALOFUGINONE AS ACTIVE INGREDIENT” (THE CATHOLIC UNIVERSITY OF KOREA INDUSTRY-ACADEMIC …, priority 2013, published 2016)

Assays:
[1] = tested on: TRAP, NFATc1, b3 integrin, OSCAR, cathepsin K, and MMP9 mRNA; test: Real-time PCR of factors associated with osteoclast differentiation in bone marrow cells of arthritis animal model; format: in vivo, mouse; settings: bone marrow cells of CIA mice, RANKL treatment, FIG. 4C
Experimental: (§1) For the construction of a mouse model with collagen-induced arthritis (hereinafter, referred to as “CIA”), a 6-week old male DBA/1J mouse was subjected to primary immunization by intradermal injection after mixing the bovine type II collagen (hereinafter, referred to as “CII”) and complete Freud's adjuvant (CFA) in an amount of 100 μL, respectively. After a week thereafter, halofuginone was injected intraperitoneally at 3 day intervals at a concentration of 100 μg/kg and 500 μg/kg, respectively (9 weeks).
The real-time PCR was performed using the LightCycler 2.0 System Instrument and the reaction compounds were prepared by mixing 1 μL of each cDNA, 10 μL of premix Ex Taq as an enzyme for the initiation, and each primer pair to a final volume of 20 μL using distilled water. The reaction conditions were: reacted at 95° C. for 10 minutes, followed by a total of 50 cycles consisting of denaturation at 95° C. for 10 seconds, annealing at 60° C. for 5 seconds, and extension at 72° C. for 10 seconds. The values of cycle threshold (Ct) were analyzed and the amount of mRNA expression for each target was indicated in terms of the amount of beta-actin mRNA expression and the relative quantity. The primers used are shown below.
(§2) Accordingly, the present inventors isolated bone marrow cells from the joint of the animal model with arthritis, cultured the cells under the stimulation of M-CSF and RANKL for 7 days, and subjected them to TRAP staining using the leukocyte acid phosphatase Kit (387-A, Sigma, St. Louis, Mo., USA) according to the manufacturer's manual.
The primers used are shown below.

IL-17 and IL-6 = test: Inflammatory cytokines IL-17 and IL-6 in joint tissue staining / sera ELISA of CIA mice; format: in vivo, mouse; settings: FIG. 1C
Experimental: as §1

[2] = tested on: murine bone marrow cells differentiating into osteoclasts; test: Murine bone marrow cell osteoclast differentiation (M-CSF, RANKL): TRAP staining and real-time PCR; format: cell-based, mouse; settings: 5 days
Experimental: For test animals, 6 to 7-week old male DBA-1 mice were used. […] Bone marrow cells were isolated from the tibia and the femur of mice, and the RBC of the isolated bone marrow cells were lysed, inoculated into a 24-well plate after diluting in 10% Minimum α-MEM to a concentration of 2 ? 10^5 cells/well, and cultured for 12 hours. The adherent cells were removed, stimulated with a macrophage-colony stimulating factor (M-CSF) and cultured for 3 days, and treated with M-CSF (10 ng/mL), receptor activator of NF-κB ligand (RANKL; 50 ng/mL), and halofuginone and cultured for 2 days. The medium was replaced in 2 days, retreated in the same manner, and cultured for 2 days.
(§3) Murine bone marrow cells were differentiated for 5 days by stimulating with M-CSF, RANKL, and halofuginone and subjected to TRAP staining according to the method described in Example <1-8> to confirm the number of TRAP positive cells. Additionally, the expression of c-Fos, JunB, and Jpd2 in the bone marrow cells were confirmed by real-time PCR according to the method described in Example <1-6>.

osteoclasts = test: Cell cycle during osteoclast differentiation by 7-AAD and BrdU staining; format: cell-based, mouse; settings: FIG. 5D
Source text: as §3, with “<1-6>. Meanwhile, to examine the effect of halofuginone on cell cycle during the process of osteoclast differentiation, osteoclasts were subjected to 7-AAD and BrdU staining.” for “<1-6>.”

[3] = tested on: anti-CII-specific IgG, IgG1, and IgG2a; test: Type II collagen-specific IgG, IgG1 and IgG2a in sera by ELISA; format: in vivo, mouse; settings: CIA mice, sera 4 weeks after injection, FIG. 1D
Experimental: as §1
The concentrations of murine anti-CII-specific IgG, IgG1, and IgG2a were measured by ELISA method by collecting sera from a mouse with arthritis 4 weeks after injecting the mouse with halofuginone (Bethyl Lab Co., Montgomery, Tex., USA). The group treated with a solution in which DMSO was diluted in saline was used as the control group.
The method of measuring the anti-CII-specific IgG, IgG1, and IgG2a antibodies is as follows. The CII was diluted in 0.05M sodium carbonate coating buffer (pH 9.6) at a concentration of 4 μg/mL, coated onto a 96-well microtiter plate, and placed at 4° C. for 18 hours. After removing the coated solution, for the inhibition of non-specific binding, TBS (pH 8.0) containing 1% bovine serum albumin (BSA: Amre-sco, solon, Ohio, USA) was added in an amount of 200 μL thereto and reacted at room temperature for 1 hour. For the measurement of anti-CII-specific IgG, IgG1, and IgG2a antibodies, the specimen was diluted at a 1:1,000 ratio, and in particular, TBS (pH 8.0) containing 1% BSA and 0.05% Tween 20 (Amresco) was used as the diluted solution. Then, the sera sample diluted in advance was added to each well in an amount of 50 μL and reacted at room temperature for 1 hour. […] The absorbance of the resultant was measured at 450 nm using the ELISA reader and the result of antibody measurement was indicated by absorbance itself.

[4] = tested on: bone marrow cells differentiating into osteoclasts; test: TRAP staining of bone marrow cells from arthritis animal model cultured with M-CSF and RANKL; format: in vivo, mouse; settings: bone marrow cells from treated CIA mice, cultured with M-CSF and RANKL for 7 days, FIG. 4B
Experimental: as §1, §2

[5] = tested on: osteoclasts (TRAP positive cells) in the joint; test: Osteoclast differentiation potential in the joint of arthritis animal model by TRAP staining; format: in vivo, mouse; settings: joint of CIA mice, FIG. 4A
Experimental: as §1
To examine the osteoclast differentiation potential in the joint of the animal model with arthritis by TRAP staining, the marker enzyme of osteoclasts were subjected to TRAP staining using the leukocyte acid phosphatase Kit (387-A, Sigma, St. Louis, Mo., USA) according to the manufacturer's manual. The cells having at least 5 nuclei among the TRAP positive cells (red color) were regarded as osteoclasts.

Structure (SMILES): O=C(C[C@H]1NCCC[C@@H]1O)Cn1cnc2cc(Br)c(Cl)cc2c1=O (racemic) [halofuginone]
- mRNA expression level of MMP9 [1]: decreased
- mRNA expression level of NFATc1 [1]: decreased
- mRNA expression level of OSCAR [1]: decreased
- mRNA expression level of TRAP [1]: decreased
- mRNA expression level of b3 integrin [1]: decreased
- mRNA expression level of cathepsin K [1]: decreased
- level of inflammatory cytokine IL-6 (IL-17 and IL-6): significantly decrease
- level of inflammatory cytokine IL-17 (IL-17 and IL-6): significantly decrease
- mRNA expression of Jpd2 ([2]; FIG. 5C): inhibits
- mRNA expression of JunB ([2]; FIG. 5C): inhibits
- mRNA expression of c-Fos ([2]; FIG. 5C): inhibits
- expression of factors associated with the differentiation of osteoclasts ([2]; TRAP staining, FIG. 5A): inhibits
- progress from G0/G1 into S phase (osteoclasts; 7-AAD and BrdU staining): increased
- expression of ccnd1 encoding Cyclin D1 (osteoclasts): increased
- concentration of IgG1 within the sera [3]: significantly decreased
- concentration of IgG2a within the sera [3]: significantly decreased
- concentration of IgG within the sera [3]: significantly decreased
- number of TRAP positive cells [4]: decreased
- number of TRAP positive cells [5]: decreased
